Measurements: PMC6776549, “Gingival solitary chemosensory cells are immune sentinels for periodontitis” (Nature Communications, 2019)

Experiments:
Tas2r105 [1] = target: T1, Tas2r105 (Mus musculus, UniProt Q9JKT4); experiment: calcium mobilization in transfected HEK293, fluorescence dose-response; assay type: cell-based
T1 construct: coding region amplified from WT mouse taste bud cDNA; N-terminal tag of first 45 residues of rat somatostatin receptor 3; pcDNA3.1/Zeo(+); transient in HEK293 (PEAKrapid) with chimeric reporter G protein Galpha16gust44
T1 sequence (Q9JKT4 1-300): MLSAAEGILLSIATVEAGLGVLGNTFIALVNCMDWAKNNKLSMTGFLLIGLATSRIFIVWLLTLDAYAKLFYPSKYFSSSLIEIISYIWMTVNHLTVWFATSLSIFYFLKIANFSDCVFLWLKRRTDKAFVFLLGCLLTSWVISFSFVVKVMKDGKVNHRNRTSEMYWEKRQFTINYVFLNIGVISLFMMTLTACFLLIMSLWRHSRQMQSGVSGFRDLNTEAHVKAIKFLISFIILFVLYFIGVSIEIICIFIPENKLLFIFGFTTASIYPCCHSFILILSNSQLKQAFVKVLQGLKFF

Tas2r105 [2] = target: T1, Tas2r105; experiment: calcium mobilization in transfected HEK293; assay type: cell-based; conditions: agonist, Gα16gust44 co-expressed

## CCCCCCCCCC(=O)CC(=O)N[C@H]1CCOC1=O [LasI]
Tas2r105 [1]
  EC50: 8.9 µM

## CC[N+](CC)(CC(=O)Nc1c(C)cccc1C)Cc1ccccc1 [denatonium benzoate]
Tas2r105 [2]
  calcium mobilization in transfected HEK293: Tas2r105 was also activated by the bitter compounds denatonium benzoate (Den)

## CCCCCCCC(=O)N[C@H]1CCOC1=O [C8-HSL]
Tas2r105 [2]; synthetic compound
  calcium mobilization in transfected HEK293: two synthetic HSLs: 3-oxo-C12-HSL and C8-HSL
